Experiments:
Assay type in all cases: in vivo, C57B1/B6 type mice
MPTP-treated mice [1] = test: Tail Hanging test (forelimb placement) in MPTP-treated mice; details: during the period that the compound is administered; 3 mg/kg/day s.c. mini-pump
From the text: Mice are hung by their tails 3 times each, for approximately 10 seconds each time. Each mouse is hung by the base of its tail about 30 cm above the surface of a table until the mouse turns either left or right. A left turn is given a score of 0 and a right turn is given a score of 1.
Forelimb placement is also noted during tail hanging. The placement of the limbs is given a score on a 4 point scale. Extended limbs, or those placed above the head are given a score of 0. Limbs which are clasped or held against the body are given a score of 3. Scores of 1 or 2 are assigned for relative stages between the two extremes. Hindlimb placement is also scored as below.
(§1) Mice that receive systemic injections of the pyridine toxin 1-methyl-4-phenyl-1,2,3,6-tetrahydropyridine (MPTP) selectively lose large numbers of dopaminergic neurons in the substantia nigra (SN) and the ventral tegmental area (VTA). Loss of dopamine cells in the SN mimics the clinical condition seen in Parkinson's disease. Loss of such cells in the VTA may contribute to the cognitive deficits seen in Parkinson's and Alzheimer's disease, due to these neurons' projections into the frontal cortex.
(§2) 50 C57B1/B6 type mice (8-12 weeks old) are allowed to acclimate for 12-14 days before experimental use. The mice are then randomly assigned to the following groups: MPTP plus DMSO vehicle; vehicle alone, MPTP plus brimonidine (3 mg/kg/day), MPTP plus AGN 197075 (3 mg/kg/day), and MPTP plus AGN 196923 (3 mg/kg/day)).
In the presently described assays, each mouse is then given an initial Open-Field test and a Tail Hanging test. The Open Field test is the most frequently used behavioral assay of MPTP-treated mice, and appears to be sensitive to loss of dopaminergic input from the substantia nigra. The Tail-Hanging test is sensitive to direct striatal damage; the Nest Building test is sensitive to loss of striatal input from the frontal cortex. […]
(§3) For all behavioral tests, the results are first analyzed using a repeated measures ANOVA, following by tests of the between groups effect using Fisher's HSD method.

[2] = tested on: dopaminergic neurons in the substantia nigra (SN); test: Neuron counting (tyrosine hydroxylase-labeled cells) in substantia nigra of MPTP-treated mice; details: for Neuron loss in the substantia nigra versus MPTP-treated animals: 3 mg/kg/day s.c. mini-pump 14 days, 55-60 days post MPTP; for Average Neuron Count (statistical error): substantia nigra, 3 mg/kg/day s.c. mini-pump 14 days + MPTP 40 mg/kg s.c., Control 60, Vehicle + MPTP 25
From the text: (§4) Between 55 and 60 day post MPTP injection, the mice are sacrificed using sodium nembutol. Mouse brains are perfused with phosphate buffered saline followed by Lana's fixative (paraformaldehyde and picric acid). The brains are removed and placed in Lana's fixative for 7 to 10 days. The brains are then sectioned coronally at 50 micrometers using a vibratome. And the sections stained with an antibody to tyrosine hydoxylase, the rate limiting enzyme in dopamine synthesis. The section was then examined under microscope at 100× magnification. Tissue slices (−2.9 mm and −3.6 mm posterior to Bregma were selected for cell counting in the SN and VTA. These sections are at the midpoint of the rostral half and the midpoint of the cauldual half of SN, respectively. Each TH-labeled cell that is clearly visible that has between 2 and 6 neurites is considered a neuron. An overall average count for each animal is calculated from the four sections (rostral and caudal, left and right). An average is obtained for the four sections. Separate analyses are performed on the neuron counts from SN and VTA. These counts are analyzed using a repeated measures ANOVA, following by tests of the between groups effect using Fisher's HSD method.
as §1, §2
Four out of the 5 groups of mice receive an infusion of a test compound (or of vehicle containing no compound). These infusions are administered via subcutaneous implanted osmotic mini-pump over a 14 day period at a flow of 0.25 microliters/hour. Three days following implantation of the pumps, the mice are given the Open Field and Tail Hanging tests, along with the group of control mice, who are not implanted with mini-pumps. Immediately following the tests, the pump containing mice were given a 40 mg/kg injection of MPTP subcutaneously. All groups are then given the Open Field and Tail Hanging tests at 10-12 days and 30-40 days following MPTP treatment. The Open Field, and Tail Hanging tests are given at 50-55 days post MPTP treatment.

MPTP-treated mice [3] = test: Open-Field test in MPTP-treated mice; details: for Open field activity compared with the vehicle group: 3 mg/kg/day s.c. osmotic mini-pump 14 days
Procedure: Each animal is placed in a clear plastic open field box with two rows of photo-beams mounted on the sides to distinguish be5tween horizontal (i.e. distance traveled) and vertical (i.e. “rears”) movements. Ambient conditions are low noise and dim lighting. The animal's movements within the box are measured for 5 minutes, and calculated from records of the number and type of “beam-breaks” or photo-beam crossings. On the last Open Field test, only rears are counted, and classified as either “supported” or “unsupported”. Supported rears are when an animal places at least one forelimb on the side wall of the box when a rear is recorded. In an unsupported rear the mouse is supported solely by hindlimbs. These rears are distinguished by videorecording. The number of unsupported rears is the most reliable measure of dopamine neuron loss in this test.
as §1, §2
In the presently described assays, each mouse is then given an initial Open-Field test and a Tail Hanging test. […]
as §3

[4] = tested on: dopaminergic neurons in the ventral tegmental area (VTA); test: Neuron counting (tyrosine hydroxylase-labeled cells) in ventral tegmental area of MPTP-treated mice; details: 3 mg/kg/day s.c. mini-pump 14 days; MPTP alone 28% fewer neurons than Control
From the text: as §4, §1
50 C57B1/B6 type mice (8-12 weeks old) are allowed to acclimate for 12-14 days before experimental use. The mice are then randomly assigned to the following groups: MPTP plus DMSO vehicle; vehicle alone, MPTP plus brimonidine (3 mg/kg/day), MPTP plus AGN 197075 (3 mg/kg/day), and MPTP plus AGN 196923 (3 mg/kg/day)). […]

## Brc1c(NC2=NCCN2)ccc2nccnc12 [brimonidine, reference compound]
MPTP-treated mice [1]
  Impairment of forelimb extensions (tail hang test): no such trend
[2]
  Neuron loss in the substantia nigra versus MPTP-treated animals: significantly less neuron loss
  Average Neuron Count (statistical error): 32 (±1)
MPTP-treated mice [3]; 10 and 30 days post MPTP (40 mg/kg s.c.)
  Open field activity compared with the vehicle group: no alteration in this increase of activity
[4]
  Reduction of MPTP-induced neuron loss in the Ventral Tegmental area: about 10%

## CCC1=CC(Cc2c[nH]cn2)CCC1 (stereo not drawn) [AGN 196923]
MPTP-treated mice [1]
  Impairment of forelimb extensions (tail hang test): no such trend
[2]
  Neuron loss in the substantia nigra versus MPTP-treated animals: significantly less neuron loss
  Average Neuron Count (statistical error): 35 (±2)
MPTP-treated mice [3]; 10 days post MPTP
  Open field activity compared with the vehicle group: significant reduces the amount of activity
[4]
  Reduction of MPTP-induced neuron loss in the Ventral Tegmental area: about 10%

## OCCNC(=S)NCc1cccc(Cl)c1F [AGN 197075]
MPTP-treated mice [1]
  Impairment of forelimb extensions (tail hang test): significantly reduces this impairment
[2]
  Neuron loss in the substantia nigra versus MPTP-treated animals: significantly less neuron loss
  Average Neuron Count (statistical error): 37 (±2)
MPTP-treated mice [3]; 3 mg/kg/day s.c. mini-pump, 50-60 days post MPTP treatment
  Number of unsupported rears compared with vehicle: significantly more unsupported rears
[4]
  Reduction of MPTP-induced neuron loss in the Ventral Tegmental area: about 10%

Source: patent publication US20040138312A1, “Methods for the treatment of neurodegeneration” (priority 2002, published 2004)
